Source: paper PMC3885546, “Structural Determinants of the 5′-Methylthioinosine Specificity of Plasmodium Purine Nucleoside Phosphorylase” (PLoS ONE, 2014)
Numbering of substitutions follows the chain as printed. Read-outs that look alike come from different tables or passages of the source.

Key:
Test in all cases: Substrate kinetics, coupled assay
Assay type in all cases: biochemical
PfPNP Val66Phe = biological target: T1, PfPNP Val66Phe (Plasmodium falciparum, UniProt Q8I3X4, V66F); design: key to Km / kcat / kcat/Km: (-): Activity not detected under the experimental conditions; conditions: for Km / kcat / kcat/Km: substrate = label
T1 construct: made in house; host or cells: Escherichia coli Top 10
T1 sequence (Q8I3X4 1-245 V66F): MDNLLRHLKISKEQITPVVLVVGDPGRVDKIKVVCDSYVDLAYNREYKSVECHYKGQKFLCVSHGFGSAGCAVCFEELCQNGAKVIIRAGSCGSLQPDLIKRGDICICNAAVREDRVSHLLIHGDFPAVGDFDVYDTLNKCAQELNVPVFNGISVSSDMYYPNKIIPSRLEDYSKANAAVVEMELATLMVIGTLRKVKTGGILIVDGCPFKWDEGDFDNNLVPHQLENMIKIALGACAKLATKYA
Description: (§1) Kinetic assays were completed in 50 mM KH2PO4 at pH 7.4 measuring phosphorylysis of inosine or MTI by PNP in a coupled reaction with 60 milliunits/ml xanthine oxidase to convert hypoxanthine to uric acid. Formation of uric acid was measured at 293 nm wavelength (E293 = 12.9 mM^−1 cm^−1), [20]. In cases where activity for MTI was low, increased protein concentration (10 µg/ml) was used to check enzyme function. Assays were performed with excess substrate in the presence of inhibitors. Inhibition studies measured both initial (Ki) and slow onset inhibition (Ki*) for inhibitors. The initial onset inhibition was analyzed by using the following equation: ν ο = (k cat×S)/(K m(1+I/Ki)+S), ν ο is the steady state rate, k cat catalytic rate, S is substrate concentration, Km is Michealis constant for inosine, I is inhibitor concentration, and Ki is the equilibrium dissociation constant.

PfPNP His7Phe = biological target: T2, PfPNP His7Phe (Plasmodium falciparum, UniProt Q8I3X4, H7F); conditions: for Km / kcat: substrate = label
T2 construct: made in house; host or cells: Escherichia coli Top 10
T2 sequence (Q8I3X4 1-245 H7F): T1 sequence (Q8I3X4 1-245 V66F) with H7F, F66V
Description: as §1

PfPNP His7Ser = biological target: T3, PfPNP His7Ser (Plasmodium falciparum, UniProt Q8I3X4, H7S); conditions: for Km / kcat: substrate = label
T3 construct: made in house; host or cells: Escherichia coli Top 10
T3 sequence (Q8I3X4 1-245 H7S): T1 sequence (Q8I3X4 1-245 V66F) with H7S, F66V
Description: as §1

PfPNP Tyr160Ala = biological target: T4, PfPNP Tyr160Ala (Plasmodium falciparum, UniProt Q8I3X4, Y160A); conditions: for Km / kcat / reduced catalytic efficiency compared to wild-type PfPNP: substrate = label
T4 construct: made in house; host or cells: Escherichia coli Top 10
T4 sequence (Q8I3X4 1-245 Y160A): T1 sequence (Q8I3X4 1-245 V66F) with F66V, Y160A
Description: as §1

PfPNP Tyr160Phe = biological target: T5, PfPNP Tyr160Phe (Plasmodium falciparum, UniProt Q8I3X4, Y160F); conditions: for Km / kcat: substrate = label
T5 construct: made in house; host or cells: Escherichia coli Top 10
T5 sequence (Q8I3X4 1-245 Y160F): T1 sequence (Q8I3X4 1-245 V66F) with F66V, Y160F
Description: as §1

PfPNP V66I/V73I/Y160F = biological target: T6, PfPNP V66I/V73I/Y160F (Plasmodium falciparum, UniProt Q8I3X4, V66I/V73I/Y160F); conditions: for Ino/MTI kcat/Km Ratio / Km / kcat: V66I/V73I/Y160F PfPNP; for Km / kcat: substrate = label
T6 construct: made in house; host or cells: Escherichia coli Top 10
T6 sequence (Q8I3X4 1-245 V66I/V73I/Y160F): T1 sequence (Q8I3X4 1-245 V66F) with F66I, V73I, Y160F
Description: as §1

PfPNP Val66Ala = biological target: T7, PfPNP Val66Ala (Plasmodium falciparum, UniProt Q8I3X4, V66A); conditions: for Km / kcat: substrate = label
T7 construct: made in house; host or cells: Escherichia coli Top 10
T7 sequence (Q8I3X4 1-245 V66A): T1 sequence (Q8I3X4 1-245 V66F) with F66A
Description: as §1

[1] = V66I:V73I:Y160F PfPNP versus wild type

Row | Molecule | kcat (PfPNP Val66Phe) | Km (PfPNP His7Phe) [µM] | kcat (PfPNP His7Phe) [s⁻¹] | Km (PfPNP His7Ser) [µM] | kcat (PfPNP His7Ser) [s⁻¹] | Km (PfPNP Tyr160Ala) [µM] | kcat (PfPNP Tyr160Ala) [s⁻¹] | reduced catalytic efficiency compared to wild-type PfPNP (PfPNP Tyr160Ala) [fold] | Km (PfPNP Tyr160Phe) [µM] | kcat (PfPNP Tyr160Phe) [s⁻¹] | Ino/MTI kcat/Km Ratio (PfPNP V66I/V73I/Y160F) | Km (PfPNP V66I/V73I/Y160F) [µM] | kcat (PfPNP V66I/V73I/Y160F) [s⁻¹] | Km (PfPNP Val66Ala) [µM] | kcat (PfPNP Val66Ala) [s⁻¹] | other results
1 | 5′-methylthioinosine | (-) | 9.6 ± 8 | 0.21 ± 0.03 | 3.2 ± 2.7 | 0.88 ± 0.30 | 200 ± 59 | 0.09 ± 0.01 | ~1000 | 44 ± 5 | 0.30 ± 0.04 | 160 | 18 ± 6 | 0.01 ± 0.00 | 0.3 ± 0.4 | 0.12 ± 0.04 | Km (PfPNP Val66Phe): (-); kcat/Km (PfPNP Val66Phe): (-); kcat/Km (PfPNP Val66Phe; listed as MTI): no detectable activity; decrease in kcat (PfPNP V66I/V73I/Y160F; [1]): 83 fold; increase in Km (PfPNP V66I/V73I/Y160F; [1]): 2 fold
2 | OC[C@H]1O[C@@H](n2cnc3c(O)ncnc32)[C@H](O)[C@@H]1O [Inosine, inosine] | 5.7 ± 3.4 s⁻¹ | 353 ± 22 | 2.2 ± 0.7 | 14 ± 3 | 0.5 ± 0.3 | 5400 ± 120 | 0.1 ± 0.0 | ~1000 | 2.5 ± 1.2 | 0.21 ± 0.02 | 160 | 4 ± 1.8 | 0.36 ± 0.23 | 13 ± 10 | 2.4 ± 0.6 | Km greater than for wildtype PfPNP (PfPNP Val66Phe): ~100 fold; Km (PfPNP Val66Phe; read-out: Km): 1500 ± 410 µM; Ino/MTI kcat/Km Ratio (PfPNP His7Phe): 0.3; Ino/MTI kcat/Km Ratio (PfPNP His7Ser): 0.1; Ino/MTI kcat/Km Ratio (PfPNP Tyr160Ala): 0.5; Ino/MTI kcat/Km Ratio (PfPNP Tyr160Phe): 12; Ino/MTI kcat/Km Ratio (PfPNP Val66Ala): 0.5
